Experimental data as given in ChEMBL document CHEMBL4602605, “Fluoroquinolones structural and medicinal developments (2013-2018): Where are we now?” (Bioorg Med Chem, 2019).
In brackets after ≈: the same amount, converted by molar mass.

Columns and labels:
Format in all cases: functional
Staphylococcus aureus [1] = experiment: Antimicrobial activity against methicillin-susceptible Staphylococcus aureus ATCC 29213 incubated for 18 to 24 hrs by two-fold serial dilution method
Staphylococcus aureus [2] = experiment: Antimicrobial activity against methicillin-resistant Staphylococcus aureus ATCC 33591 incubated for 18 to 24 hrs by two-fold serial dilution method
[3] = tested on: Mycobacterium tuberculosis; experiment: Antimicrobial activity against Mycobacterium tuberculosis H37Rv ATCC 27294 incubated for 7 days by microplate Alamar blue assay; details: H37Rv ATCC 27294, 168 h
[4] = tested on: Staphylococcus epidermidis; experiment: Antimicrobial activity against methicillin-susceptible Staphylococcus epidermidis ATCC 12228 incubated for 18 to 24 hrs by two-fold serial dilution method
Enterococcus faecium = experiment: Antimicrobial activity against Enterococcus faecium ATCC 700221 incubated for 18 to 24 hrs by two-fold serial dilution method
Escherichia coli = experiment: Antimicrobial activity against tolC deficient Escherichia coli KD65 by CLSI-based broth microdilution method; details: Escherichia coli, KD65; read-out: MIC
Staphylococcus aureus [5] = experiment: Antimicrobial activity against Staphylococcus aureus ATCC 29213 by CLSI-based broth microdilution method; details: Staphylococcus aureus, ATCC 29213; read-out: MIC
Pseudomonas aeruginosa = experiment: Antimicrobial activity against Pseudomonas aeruginosa PAO1 by CLSI-based broth microdilution method

Row | SMILES | MIC (Staphylococcus aureus [1]) [µg/mL] | MIC (Staphylococcus aureus [2]) [µg/mL] | MIC [3] [µM] | MIC [4] [µg/mL] | MIC (Enterococcus faecium) [µg/mL] | MIC (Escherichia coli) [µg/mL] | MIC (Staphylococcus aureus [5]) [µg/mL] | MIC (Pseudomonas aeruginosa) [µg/mL]
1 | COc1c(N2CCN(C/C(C)=N/Nc3ccc(Cl)cc3)CC2)c(F)cc2c(=O)c(C(=O)O)cn(C3CC3)c12 | 0.06 (≈ 0.111 µM) | 0.06 (≈ 0.111 µM) | 0.433 (≈ 0.235 µg/mL) | 0.125 (≈ 0.231 µM) | 64 (≈ 118 µM) | – | – | –
2 | O=C(O)c1cn(C2CC2)c2c3c(c(F)cc2c1=O)N1CCCC1CCO3 (configuration not stated) | – | – | – | – | – | 0.008 (≈ 0.0223 µM) | 0.21 (≈ 0.586 µM) | 21 (≈ 58.6 µM)
3 | N[C@@H]1CCN2c3c(F)cc4c(=O)c(C(=O)O)cn(C5CC5)c4c3C=C[C@H]12 | – | – | – | – | – | 1 (≈ 2.81 µM) | 8 (≈ 22.5 µM) | > 64
4 | COc1c(N2CCN(C/C(C)=N/Nc3nc4ccccc4s3)CC2)c(F)cc2c(=O)c(C(=O)O)cn(C3CC3)c12 | 0.25 (≈ 0.443 µM) | 0.5 (≈ 0.886 µM) | 0.313 (≈ 0.177 µg/mL) | 0.5 (≈ 0.886 µM) | 64 (≈ 113 µM) | – | – | –
5 | O=C(O)c1cn(C2CC2)c2c3c(c(F)cc2c1=O)N1CCCC1CS(=O)(=O)C3 (configuration not stated) | – | – | – | – | – | 0.25 (≈ 0.615 µM) | 1 (≈ 2.46 µM) | > 64
6 | COc1c(N2CCN(C/C(C)=N/Nc3nc4ccccc4[nH]3)CC2)c(F)cc2c(=O)c(C(=O)O)cn(C3CC3)c12 | 1 (≈ 1.83 µM) | 1 (≈ 1.83 µM) | 0.434 (≈ 0.238 µg/mL) | 1 (≈ 1.83 µM) | 128 (≈ 234 µM) | – | – | –
7 | N[C@H]1C[C@H]2CCOc3c(c(F)cc4c(=O)c(C(=O)O)cn(C5CC5)c34)N2C1 | – | – | – | – | – | 0.004 (≈ 0.0107 µM) | 0.015 (≈ 0.0402 µM) | 0.093 (≈ 0.249 µM)
8 | COc1c(N2CCN(C/C(C)=N/Nc3ccnc4cc(Cl)ccc34)CC2)c(F)cc2c(=O)c(C(=O)O)cn(C3CC3)c12 | 0.5 (≈ 0.843 µM) | 0.5 (≈ 0.843 µM) | 0.266 (≈ 0.158 µg/mL) | 1 (≈ 1.69 µM) | > 128 | – | – | –
9 | N[C@@H]1CCN2c3c(F)cc4c(=O)c(C(=O)O)cn(C5CC5)c4c3/C=C\CC[C@H]12 | – | – | – | – | – | 0.25 (≈ 0.652 µM) | 4 (≈ 10.4 µM) | 32 (≈ 83.5 µM)
10 | N[C@@H]1C[C@H]2CCCc3c(c(F)cc4c(=O)c(C(=O)O)cn(C5CC5)c34)N2C1 | – | – | – | – | – | 8 (≈ 21.5 µM) | 8 (≈ 21.5 µM) | 32 (≈ 86.2 µM)
11 | N[C@@H]1CCN2c3c(F)cc4c(=O)c(C(=O)O)cn(C5CC5)c4c3SC[C@H]12 | – | – | – | – | – | 0.03 (≈ 0.0799 µM) | 0.125 (≈ 0.333 µM) | 4 (≈ 10.7 µM)
12 | O=C(O)c1cn(C2CC2)c2c3c(c(F)cc2c1=O)N1CCCC1C(=O)NC3 (configuration not stated) | – | – | – | – | – | 8 (≈ 21.5 µM) | 16 (≈ 43.1 µM) | > 64
13 | CC(=O)N1Cc2c(c(F)cc3c(=O)c(C(=O)O)cn(C4CC4)c23)N2CCCC2C1 (configuration not stated) | – | – | – | – | – | 0.2 (≈ 0.501 µM) | 0.082 (≈ 0.205 µM) | > 16
14 | O=C(O)c1cn(C2CC2)c2c3c(c(F)cc2c1=O)N1CCCC1COC3 (configuration not stated) | – | – | – | – | – | 1 (≈ 2.79 µM) | 0.5 (≈ 1.4 µM) | > 64
15 | COc1c(N2CCN(C/C(C)=N/Nc3ccc(C(F)(F)F)cc3)CC2)c(F)cc2c(=O)c(C(=O)O)cn(C3CC3)c12 | 0.125 (≈ 0.217 µM) | 0.125 (≈ 0.217 µM) | 0.394 (≈ 0.227 µg/mL) | 0.25 (≈ 0.434 µM) | 64 (≈ 111 µM) | – | – | –
16 | N[C@@H]1CCN2c3c(F)cc4c(=O)c(C(=O)O)cn(C5CC5)c4c3COC[C@H]12 | – | – | – | – | – | 0.004 (≈ 0.0107 µM) | 2 (≈ 5.36 µM) | 0.5 (≈ 1.34 µM)
17 | COc1c(N2CCN(C/C(C)=N/Nc3ccccc3)CC2)c(F)cc2c(=O)c(C(=O)O)cn(C3CC3)c12 | 0.25 (≈ 0.493 µM) | 0.25 (≈ 0.493 µM) | 0.398 (≈ 0.202 µg/mL) | 0.25 (≈ 0.493 µM) | 64 (≈ 126 µM) | – | – | –
18 | COc1c(N2CCN(C/C(C)=N/Nc3ccccn3)CC2)c(F)cc2c(=O)c(C(=O)O)cn(C3CC3)c12 | 0.125 (≈ 0.246 µM) | 0.125 (≈ 0.246 µM) | 0.372 (≈ 0.189 µg/mL) | 0.125 (≈ 0.246 µM) | 64 (≈ 126 µM) | – | – | –
19 | N[C@H]1CCN2c3c(F)cc4c(=O)c(C(=O)O)cn(C5CC5)c4c3CNC[C@H]12 | – | – | – | – | – | ≤ 0.06 | 1 (≈ 2.69 µM) | 0.5 (≈ 1.34 µM)
20 | O=C(O)c1cn(C2CC2)c2c3c(c(F)cc2c1=O)N1CCCC1C/C(=N\O)C3 (configuration not stated) | – | – | – | – | – | 0.03 (≈ 0.0778 µM) | 0.125 (≈ 0.324 µM) | > 16
21 | N[C@@H]1CCN2c3c(F)cc4c(=O)c(C(=O)O)cn(C5CC5)c4c3CC[C@H]12 | – | – | – | – | – | 0.004 (≈ 0.0112 µM) | 0.03 (≈ 0.0839 µM) | 0.5 (≈ 1.4 µM)
22 | N[C@@H]1C[C@@H]2CCCc3c(c(F)cc4c(=O)c(C(=O)O)cn(C5CC5)c34)N2C1 | – | – | – | – | – | 0.25 (≈ 0.673 µM) | 0.25 (≈ 0.673 µM) | 1 (≈ 2.69 µM)
23 | O=C(O)c1cn(C2CC2)c2c(cc(F)c3c2nnn3-c2ccc(F)cc2)c1=O | – | – | – | – | – | 0.25 (≈ 0.654 µM) | 0.06 (≈ 0.157 µM) | 40 (≈ 105 µM)
24 | CN1Cc2c(c(F)cc3c(=O)c(C(=O)O)cn(C4CC4)c23)N2CCCC2C1 (configuration not stated) | – | – | – | – | – | 2 (≈ 5.38 µM) | 32 (≈ 86.2 µM) | > 64
25 | N[C@@H]1C[C@H]2COCc3c(c(F)cc4c(=O)c(C(=O)O)cn(C5CC5)c34)N2C1 | – | – | – | – | – | 0.008 (≈ 0.0214 µM) | 0.015 (≈ 0.0402 µM) | 0.25 (≈ 0.67 µM)
26 | COc1cccc(N/N=C(\C)CN2CCN(c3c(F)cc4c(=O)c(C(=O)O)cn(C5CC5)c4c3OC)CC2)c1 | 0.125 (≈ 0.233 µM) | 0.125 (≈ 0.233 µM) | 0.434 (≈ 0.233 µg/mL) | 0.25 (≈ 0.465 µM) | > 64 | – | – | –
27 | O=C(O)c1cn(C2CC2)c2c3c(c(F)cc2c1=O)N1CCCC1CN=C3 (configuration not stated) | – | – | – | – | – | 0.25 (≈ 0.703 µM) | 0.25 (≈ 0.703 µM) | 2 (≈ 5.63 µM)
